Earlier results, collected in article PMC6453670 (International Journal for Parasitology: Drugs and Drug …, 2019).

Legend:
Toxoplasma = conditions: longer treatment duration; ref Winzer et al., 2015
Neospora = conditions: longer treatment duration; ref Ojo et al., 2014; Winzer et al., 2015

For CCOc1ccc2cc(-c3nn(CC4CCN(C)CC4)c4ncnc(N)c34)ccc2c1 [BKI 1294], the “Dose at which morphological alterations were seen in vitro” value (Toxoplasma) is listed as 2.5 μM and the “Dose at which morphological alterations were seen in vitro” value (Neospora) is listed as 2.5 μM.
